Data taken from publication PMC9645344, “Serotonin-releasing agents with reduced off-target effects” (Molecular Psychiatry, 2022).
Structures can show the parent of a compound that is named as a salt.

Tests used:
VMAT2 = test system: VMAT2; set-up: method as in PMID 25771452; conditions: racemic; cited from earlier work
[1] = test system: extracellular 5-HT in the NAc; test: Fiber photometry with GRAB5-HT sensor in the NAc of freely moving mice; assay type: in vivo
Procedure: (§1) All in vivo experiments were performed in adult mice (>6 weeks old). For the photometry and microdialysis experiments, which were carried out in Florida, male C57BL/6J mice from The Jackson Laboratory (Bar Harbor, ME, USA) were group-housed in polycarbonate cages (GM500, Tecniplast, Buguggiate, Italy) with lights on from 7 a.m. to 7 p.m. Food and water were provided ad libitum. Photometry and microdialysis experiments were performed in accordance with a protocol approved by the Institutional Animal Care and Use Committee at Florida Atlantic University. For the behavioral experiments, which were carried out in Vienna, C57BL/6N mice from Charles River (Sulzfeld, Germany) were group-housed in polycarbonate cages with lights on from 7 a.m. to 7 p.m. Food and water were provided ad libitum. Behavioral experiments were performed in accordance with a protocol approved by the Austrian national ethical committee on animal care and use (Bundesministerium für Wissenschaft und Forschung: BMWFW-66.009/0016-WF/V/3b/2015). All animal procedures were conducted in agreement with the ARRIVE guidelines and the U.K. Animal (Scientific Procedures) Act, 1986, and associated guidelines, EU Directive 2010/63/EU for animal experiments. Mice were given at least 1 week to acclimate before being used in any experiments.
Mice were anesthetized with isoflurane (5% induction, 2% maintenance) and placed into a stereotaxic frame (Kopf Instruments, Tujunga, CA, USA) oriented in the flat skull position. Ophthalmic ointment was applied to prevent drying of the eyes. Ketoprofen (10 mg kg^−1) was administered subcutaneously (s.c.), whereas bupivacaine and lidocaine were administered locally (s.c.; 100 µl of sterile saline containing 0.05% bupivacaine and 0.2% lidocaine) to the surgical site atop the head. A midline incision was made through the skin on the dorsal surface of the head to expose the skull. Fascia was removed, coordinates for the NAc were determined relative to bregma: anterior/posterior = 1.54 mm; medial/lateral = 0.7 mm; dorsal/ventral = −4.1 mm. A 1 mm burr hole was drilled through the skull. […] For the mice used for fiber photometry, 4*10^12 genome copies of AAV9-hSyn-5-HT2h or 10^10 genome copies of AAV-hSyn-DA2m were delivered into the NAc at an infusion rate of 100 nl min^−1 (total volume of 1 µl) using a 34-gauge needle attached to a 10 µl Nanofil microsyringe (Hamilton, Reno, NV, USA), as previously described. Following injection of the virus, an optical fiber was lowered through the burr hole and secured with glass ionomer cement. Three 1.6 mm screws (00-96X1/16 39052, Plastics One Inc., Roanoke, VA, USA) were affixed to the skull to support a cement stage that was created to secure the implanted guide cannulae or optical fiber. Mice were singly housed following surgery and allowed 6 days of recovery for the microdialysis experiments or 21 days for the photometry experiments. Food and water were available ad libitum.
To monitor light emitted from the G-protein coupled receptor-activation-based 5-HT (GRAB5-HT) and DA (GRABDA) sensors, fiber photometry was performed as described. Briefly, a light emitting diode (465 nm) (CLED_465, Doric Lenses, Quebec, QC, Canada), reflected through a dichroic mirror, was coupled to an optical fiber (200 µm core/225 cladding diameter; Thorlabs, Newton, NJ, USA) that was glued to a metal ferrule (Doric Lenses, Quebec, QC, Canada) and implanted into the NAc as described above. Emitted, band-pass filtered light (500–550 nm, FMC6, Doric Lenses, Quebec,QC, Canada) was detected with a photodetector (Newport Femtowatt silicone PIN; New Focus, San Jose, CA, USA). Data were recorded using a RZ5P lock-in amplifier (Tucker-Davis Technologies, Alachua, FL, USA) controlled with Synapse software. Sinusoidal excitation was delivered at 210 Hz by an LED driver Doric Lenses, LEDD_4) at low power mode. A demodulated signal was low-pass filtered at 6 Hz and digitized at 1017 Hz. […]

C57BL/6N mice [2] = test: Forced-swim test (FST); assay type: in vivo; conditions: for immobility time in the FST versus vehicle: mice
Procedure: as §1
(§2) For behavioral assays, animals were assigned to treatment groups and injected with test drugs by an unblinded observer.
The FST was performed as previously described. In brief, mice were placed for 6 min in a beaker (diameter: 19 cm, height: 23 cm), halfway filled with water (22–23 °C), and the immobility time was quantified using the software Videotrack (Viewpoint, Champagne au Mont d’Or, France). Immobility was defined as the absence of any movement, except for those required to keep the head above the water. The time spent immobile during the final 4 min of the test was used as a measure of behavioral despair. Animal sample size was confirmed using a post hoc analysis of the achieved power using G*Power3.1 [29]. Using a significance level (α) of 0.05 and an effect size f = 2.5 and a sample size of 6 animals/group we achieved the commonly accepted statistical power (1−β) of 0.8.

human SERT [3] = molecular target: T1, human SERT (Homo sapiens, UniProt P31645); test: SERT uptake inhibition assay in HEK293 cells ([3H]5-HT); assay type: cell-based
T1 construct: expressed in transfected cells
T1 sequence (P31645 whole entry): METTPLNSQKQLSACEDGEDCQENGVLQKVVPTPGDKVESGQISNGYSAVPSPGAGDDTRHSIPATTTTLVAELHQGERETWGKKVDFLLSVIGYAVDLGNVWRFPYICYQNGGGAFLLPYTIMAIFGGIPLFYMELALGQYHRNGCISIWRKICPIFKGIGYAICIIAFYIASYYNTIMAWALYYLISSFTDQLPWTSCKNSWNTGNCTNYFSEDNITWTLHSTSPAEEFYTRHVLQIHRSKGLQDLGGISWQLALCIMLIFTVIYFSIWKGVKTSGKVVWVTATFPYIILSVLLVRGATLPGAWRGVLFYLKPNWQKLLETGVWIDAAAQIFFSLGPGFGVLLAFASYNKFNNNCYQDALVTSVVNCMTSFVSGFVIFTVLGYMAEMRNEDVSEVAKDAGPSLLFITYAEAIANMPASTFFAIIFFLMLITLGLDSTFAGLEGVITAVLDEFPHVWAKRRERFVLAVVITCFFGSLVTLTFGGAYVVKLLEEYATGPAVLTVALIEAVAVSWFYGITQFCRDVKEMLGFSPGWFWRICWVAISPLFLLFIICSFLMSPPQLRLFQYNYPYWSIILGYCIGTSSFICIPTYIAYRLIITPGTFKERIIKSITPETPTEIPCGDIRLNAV
Procedure: (§3) Human embryonic kidney 293 (HEK293) cells stably expressing the human isoforms of either DAT or SERT were maintained in Dulbecco’s Modified Eagle Medium (DMEM), supplemented with 10% fetal calf serum at a subconfluent state in humidified atmosphere (5% CO2, 37 °C).
(§4) Uptake inhibition assays were performed as described earlier. Briefly, HEK293 cells stably expressing human SERT or DAT were seeded onto poly- D-lysine (PDL) coated 96-well plates (40,000 cells well^−1) the day before an experiment. Prior to the uptake inhibition assay, DMEM was replaced with Krebs-HEPES buffer (KHB, 25 mM HEPES, 120 mM NaCl, 5 mM KCl, 1.2 mM CaCl2, 1.2 mM MgSO4, and 5 mM D-glucose, pH 7.3) and the cells were preincubated with test drugs for 5 min at room temperature. Uptake assays were initiated by adding 20 nM [^3H]MPP^+ to DAT cells or 100 nM [^3H]5-HT to SERT cells. After 180 s (DAT) or 60 s (SERT), the tritiated substrate was removed by aspiration. Cells were washed once with ice-cold KHB, then lysed in 1% sodium dodecyl sulfate (SDS) and subjected to liquid scintillation counting to quantify tritium accumulated in each sample. Non-specific uptake was determined in the presence of mazindol (1 µM) for DAT or paroxetine (1 µM) for SERT and subtracted throughout.

human SERT [4] = molecular target: T1, human SERT; test: [3H]5-HT release assay in HEK293 cells (superfusion); assay type: cell-based; conditions: 10 µM, SERT-expressing HEK293 cells
Procedure: HEK293 cells stably expressing SERT were seeded onto PDL-coated glass coverslips (5 mm diameter) that were placed into 96-well plates at a density of 40,000 cells per well the day before the experiment. Cells were preloaded with [^3H]5-HT (0.4 µM, 20 min at 37 °C). Subsequently, the cells were transferred into small chambers with a total volume of 200 µl and superfused with KHB at a flow rate of 0.7 ml per min for 40 min to establish a stable baseline before the collection of 2-min fractions was initiated. For each experiment, three basal fractions were collected before the cells were exposed to various concentrations (given in the figure legends) of the test drugs for five fractions. Subsequently, the cells were superfused with 1% SDS for three final fractions that served to determine the total amount of radioactivity present within the cells at the end of each experimental run. The amount of tritium within each fraction was determined by liquid scintillation counting, and release was expressed as percentage of radioactivity released in relation to the total radioactivity present at the beginning of that fraction. Observations from superfusion experiments were excluded in case of premature exposure to SDS.

rat brain synaptosomes = test system: rat brain synaptosomes; set-up: method as in PMID 26738428; conditions: cited from earlier work
human DAT = molecular target: T2, human DAT (Homo sapiens, UniProt Q01959); test: DAT uptake inhibition assay in HEK293 cells ([3H]MPP+); assay type: cell-based; conditions: for DAT/SERT ratio: (1/DAT IC50)/(1/SERT IC50), higher values indicate higher DAT-selectivity
T2 construct: expressed in transfected cells
T2 sequence (Q01959 whole entry): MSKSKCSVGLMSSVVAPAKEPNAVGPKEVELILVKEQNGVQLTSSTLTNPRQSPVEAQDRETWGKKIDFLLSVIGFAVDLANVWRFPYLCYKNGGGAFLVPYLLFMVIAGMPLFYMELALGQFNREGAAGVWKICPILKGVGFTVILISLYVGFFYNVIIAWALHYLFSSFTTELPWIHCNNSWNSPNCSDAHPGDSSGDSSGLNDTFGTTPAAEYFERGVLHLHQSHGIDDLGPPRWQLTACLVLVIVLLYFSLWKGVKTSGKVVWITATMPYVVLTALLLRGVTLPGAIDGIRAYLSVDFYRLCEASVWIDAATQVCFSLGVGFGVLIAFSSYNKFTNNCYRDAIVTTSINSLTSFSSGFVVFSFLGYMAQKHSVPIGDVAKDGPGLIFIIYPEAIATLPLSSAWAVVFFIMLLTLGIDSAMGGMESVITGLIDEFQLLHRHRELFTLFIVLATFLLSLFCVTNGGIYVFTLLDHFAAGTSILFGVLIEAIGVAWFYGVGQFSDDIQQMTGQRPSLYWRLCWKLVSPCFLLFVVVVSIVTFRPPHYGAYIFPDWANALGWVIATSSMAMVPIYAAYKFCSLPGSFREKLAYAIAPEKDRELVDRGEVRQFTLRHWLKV
Procedure: as §3, §4

C57BL/6N mice [5] = test: Open-field test; assay type: in vivo; conditions: for horizontal locomotor activity (total distance traveled) in the open field test: 1 h
Procedure: as §1, §2
Mice were placed into an open field arena (27.3 × 27.3 × 27.3 cm) surrounded by infrared beams to track movements. The total distance traveled over 1 h was recorded using Activity Monitor (Med Associates Inc., St. Albans, VT, USA) and interpreted as a measure of the psychostimulant effects. Animal sample size was confirmed using a post hoc analysis of the achieved power using G*Power3.1 [29]. Using a significance level (α) of 0.05 and an effect size f = 1.92 and a sample size of 7.5 animals (5–10)/group we achieved the commonly accepted statistical power (1−β) of 0.8.

VMATs = test: VMAT uptake inhibition assay in PC12 cells; assay type: cell-based; conditions: all at 30 µM, relative to inhibition by 30 µM reserpine
Procedure: VMAT uptake inhibition assays were conducted as previously described, with some modifications. In brief, […] PC12 cells per well were seeded in 24-well plates the day before experimentation. The cells were pretreated with 100 nM nisoxetine and mazindol to inhibit non-specific binding. PC12 cells were then preincubated with 200 µM digitonin to permeabilize membranes and were kept at room temperature on a plate shaker at low velocity for 30 min. Cells were treated with test drugs and shaken for another 10 min. Tritiated substrate (0.05 µM [^3H]5-HT) was added, and the cells incubated on the plate shaker for 30 min. To terminate uptake, cells were transferred into 1.5 ml Eppendorf tubes, centrifuged at 5000 rpm for 5 min. The supernatant was aspirated, cells were washed with cold KHB, recentrifuged and lysed with 200 µl SDS. The solutions were transferred into vials containing 2 ml scintillation cocktail and radioactivity was determined via beta-scintillation counting (Perkin Elmer, Waltham, MA, USA). For analysis, inhibitory potency of test drugs was normalized to uptake inhibition caused by the potent VMAT inhibitor reserpine.

[6] = indicated doses (1, 5 and 10 mg kg-1) intraperitoneal

SMILES | extracellular 5-HT in the NAc (GRAB5-HT fluorescence) ([1]; 10 mg kg-1 intraperitoneal) | immobility time in the FST versus vehicle (C57BL/6N mice [2]; 5 mg kg-1 intraperitoneal) | immobility time in the FST versus vehicle (C57BL/6N mice [2]; 10 mg kg-1 intraperitoneal) | IC50 (human SERT [3]) [µM] | effect on release of preloaded [3H]5-HT (human SERT [4]) | IC50 (human DAT) [µM] | DAT/SERT ratio (human DAT) | other results
CNC(C)C(=O)c1ccc(C)cc1 (stereo not shown) [4-MMC, 4-methyl-N-methylcathinone] |  |  |  |  |  |  |  | potency to inhibit VMAT2-mediated uptake, lower than that of MDMA (VMAT2): 10 fold
CCN[C@@H](C)Cc1cccc(C(F)(F)F)c1 [D-FEN, d-fenfluramine, reference compound] | increased 5-HT when compared to saline |  |  |  |  |  |  | GRAB5-HT basal fluorescence in the NAc ([1]; 3 and 10 mg kg-1 intraperitoneal): increased the basal fluorescence in a dose-dependent manner; relative GRAB5-HT fluorescence at peak versus saline ([1]; t = 700-900 s post injection, drug alone, D-FEN 10, S-4-MC 5, S-4-TFMMC 10 mg kg-1 intraperitoneal): Significant effects
Cc1ccc(C(=O)[C@@H](C)N)cc1 [R-4-MC, 4-methylcathinone] |  | had no effect | had no effect | 186 | did not alter basal release of 5-HT | 9.6 | 19.3 | immobility time in the FST versus vehicle (C57BL/6N mice [2]; 1 mg kg-1 intraperitoneal): had no effect; extracellular 5-HT in the NAc (GRAB5-HT fluorescence) ([1]; 5 mg kg-1 intraperitoneal): no effect on 5-HT was observed; 5-HT release efficacy in rat brain synaptosomes (rat brain synaptosomes): fully efficacious 5-HT releaser
CN[C@H](C)C(=O)c1ccc(C)cc1 [R-4-MMC, 4-methyl-N-methylcathinone] |  |  | significantly reduced immobility time | 77.1 | did not alter basal release of 5-HT | 12.5 | 6.2 | horizontal locomotor activity (total distance traveled) in the open field test (C57BL/6N mice [5]; 10 mg kg-1 intraperitoneal): significantly affected horizontal locomotor activity
CN[C@H](C)C(=O)c1ccc(C(F)(F)F)cc1 [R-4-TFMMC, 4-trifluoromethyl-N-methylcathinone] | no effect on 5-HT was observed | had no effect | had no effect | 22.6 | did not alter basal release of 5-HT | 153 | 0.15 | immobility time in the FST versus vehicle (C57BL/6N mice [2]; 1 mg kg-1 intraperitoneal): had no effect
CN[C@H](C)C(=O)c1ccccc1 [R-MC, N-methylcathinone] |  |  |  | 964 | did not alter basal release of 5-HT | 10.6 | 90.7 | 
CN[C@@H](C)C(=O)c1ccc(C)cc1 [S-4-MMC, 4-methyl-N-methylcathinone] |  | significantly reduced immobility time versus vehicle | significantly reduced immobility time versus vehicle | 10.9 | robustly increased | 10.3 | 1.06 | time spent immobile in the FST, male and female mice (C57BL/6N mice [2]; 5 mg kg-1 intraperitoneal, male and female mice): significantly reduced the time spent immobile regardless of sex; vertical counts in the open field test (C57BL/6N mice [5]; [6]): affected vertical counts; horizontal locomotor activity (total distance traveled) in the open field test (C57BL/6N mice [5]; [6]): did not differ from vehicle; inhibition of VMAT-mediated transport compared to MDMA (VMATs): no difference
CN[C@@H](C)C(=O)c1ccccc1 [S-MC, N-methylcathinone] |  |  |  | 393 | little effect | 9.1 | 43.2 | 
CNCCC(Oc1ccc(C(F)(F)F)cc1)c1ccccc1 (stereo not shown) [fluoxetine, Fluoxetine hydrochloride, reference compound] | without effect |  |  |  |  |  |  | 
